ChEMBL document CHEMBL1147425, “Structure-activity relationships of non-imidazole H(3) receptor ligands. Part 3: 5-Substituted 3-phenyl-1,2,4-oxadiazoles as potent antagonists” (Bioorg Med Chem Lett, 2004)

Columns and labels:
Histamine H1 receptor = Histamine H1 receptor (Homo sapiens, UniProt P35367); assay: Binding affinity towards histamine H1 receptor of human colon cells was determined; type: cell-based
Histamine H3 receptor [1] = target: Histamine H3 receptor (Rattus norvegicus, UniProt Q9QYN8); assay: Binding affinity for rat histamine H3 receptor on rat cortical cells
Histamine H2 receptor = Histamine H2 receptor (Homo sapiens, UniProt P25021); assay: Binding affinity towards histamine H2 receptor of human colon cells was determined; type: cell-based
Histamine H4 receptor = Histamine H4 receptor (Homo sapiens, UniProt Q9H3N8); assay: Binding affinity towards histamine H4 receptor of human colon cells was determined; type: cell-based
Mus musculus = assay: Antagonistic effect was observed against agonist induced dipsogenia in mice after i.p. administration of compound; Active; type: functional
Histamine H3 receptor [2] = target: Histamine H3 receptor (Homo sapiens, UniProt Q9Y5N1); assay: Binding affinity for human histamine H3 receptor on human colon cells; type: cell-based
Sequence of Histamine H3 receptor (Homo sapiens, UniProt Q9Y5N1) (Q9Y5N1 whole entry): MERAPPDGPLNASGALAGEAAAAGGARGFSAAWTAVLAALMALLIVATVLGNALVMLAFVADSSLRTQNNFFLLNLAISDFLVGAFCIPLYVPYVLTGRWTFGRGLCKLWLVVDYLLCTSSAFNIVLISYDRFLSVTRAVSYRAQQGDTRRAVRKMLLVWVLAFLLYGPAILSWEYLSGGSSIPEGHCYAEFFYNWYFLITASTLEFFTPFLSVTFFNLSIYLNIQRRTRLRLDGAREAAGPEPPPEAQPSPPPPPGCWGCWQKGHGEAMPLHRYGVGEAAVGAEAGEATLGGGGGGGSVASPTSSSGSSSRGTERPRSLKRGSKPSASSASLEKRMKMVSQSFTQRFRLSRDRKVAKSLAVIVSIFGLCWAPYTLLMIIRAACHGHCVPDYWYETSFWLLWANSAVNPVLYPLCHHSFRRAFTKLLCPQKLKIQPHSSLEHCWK

Sequence of Histamine H3 receptor (Rattus norvegicus, UniProt Q9QYN8) (Q9QYN8 whole entry): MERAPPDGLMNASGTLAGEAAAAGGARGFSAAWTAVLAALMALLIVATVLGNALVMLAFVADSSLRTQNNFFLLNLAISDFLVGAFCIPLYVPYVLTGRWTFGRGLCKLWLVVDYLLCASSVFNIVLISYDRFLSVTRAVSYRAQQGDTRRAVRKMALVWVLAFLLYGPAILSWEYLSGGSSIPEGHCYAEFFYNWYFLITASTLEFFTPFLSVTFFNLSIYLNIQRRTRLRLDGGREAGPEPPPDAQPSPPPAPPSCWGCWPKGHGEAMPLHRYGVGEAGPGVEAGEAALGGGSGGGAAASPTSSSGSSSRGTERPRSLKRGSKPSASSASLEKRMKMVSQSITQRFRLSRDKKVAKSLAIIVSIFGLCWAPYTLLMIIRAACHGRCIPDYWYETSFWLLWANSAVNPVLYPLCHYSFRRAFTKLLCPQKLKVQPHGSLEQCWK
Sequence of Histamine H1 receptor (P35367 whole entry): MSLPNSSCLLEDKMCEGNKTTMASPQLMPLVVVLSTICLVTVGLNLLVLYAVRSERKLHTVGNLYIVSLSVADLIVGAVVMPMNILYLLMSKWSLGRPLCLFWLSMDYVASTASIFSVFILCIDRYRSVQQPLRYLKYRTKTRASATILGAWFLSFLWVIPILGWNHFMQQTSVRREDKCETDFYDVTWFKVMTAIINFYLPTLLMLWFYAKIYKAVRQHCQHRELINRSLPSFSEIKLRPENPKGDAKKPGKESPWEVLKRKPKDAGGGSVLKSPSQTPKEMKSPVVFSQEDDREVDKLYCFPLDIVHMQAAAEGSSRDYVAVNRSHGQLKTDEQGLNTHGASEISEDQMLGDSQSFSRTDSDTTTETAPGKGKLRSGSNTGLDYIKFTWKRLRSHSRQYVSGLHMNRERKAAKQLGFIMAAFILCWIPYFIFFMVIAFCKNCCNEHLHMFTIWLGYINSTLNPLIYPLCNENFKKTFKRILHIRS
Sequence of Histamine H4 receptor (Q9H3N8 whole entry): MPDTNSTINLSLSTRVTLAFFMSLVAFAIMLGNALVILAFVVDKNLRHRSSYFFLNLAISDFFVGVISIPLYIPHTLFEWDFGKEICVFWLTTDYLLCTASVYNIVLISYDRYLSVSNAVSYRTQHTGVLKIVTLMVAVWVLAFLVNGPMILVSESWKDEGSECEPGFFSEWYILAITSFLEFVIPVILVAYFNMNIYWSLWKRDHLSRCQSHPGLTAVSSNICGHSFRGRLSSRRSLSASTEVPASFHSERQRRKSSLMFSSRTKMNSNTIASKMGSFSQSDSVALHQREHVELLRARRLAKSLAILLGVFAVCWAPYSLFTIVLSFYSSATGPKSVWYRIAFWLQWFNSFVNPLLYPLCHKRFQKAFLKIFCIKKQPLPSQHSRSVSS
Sequence of Histamine H2 receptor (P25021 whole entry): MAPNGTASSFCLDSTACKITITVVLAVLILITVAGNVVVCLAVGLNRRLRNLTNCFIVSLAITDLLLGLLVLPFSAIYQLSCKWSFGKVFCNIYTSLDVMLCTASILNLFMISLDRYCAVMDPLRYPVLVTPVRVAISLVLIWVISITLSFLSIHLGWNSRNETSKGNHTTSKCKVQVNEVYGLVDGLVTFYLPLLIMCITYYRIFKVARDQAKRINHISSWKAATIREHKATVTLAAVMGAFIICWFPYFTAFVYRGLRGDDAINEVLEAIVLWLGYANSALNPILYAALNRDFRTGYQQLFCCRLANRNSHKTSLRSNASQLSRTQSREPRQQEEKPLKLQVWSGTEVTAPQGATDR

## C[C@@H](NC(=O)c1ccc(N(C)C)cc1)C(=O)N1CCN(CCCOc2ccc(-c3noc(CC4CCCC4)n3)c(F)c2)CC1
Histamine H1 receptor
  Ki: 890 nM
Histamine H3 receptor [1]
  Ki: 2.4 nM
Histamine H2 receptor
  Ki: > 10000 nM
Histamine H4 receptor
  Ki: > 10000 nM
Mus musculus
  Activity: >0.01 µM/kg
Histamine H3 receptor [2]
  Ki: 15 nM

## C[C@@H](NC(=O)C(C)(C)C)C(=O)N1CCN(CCCOc2ccc(-c3noc(CC4CCCC4)n3)c(F)c2)CC1
Histamine H3 receptor [1]
  Ki: 7 nM
Histamine H3 receptor [2]
  Ki: 130 nM

## C[C@@H](N)C(=O)N1CCCN(CCCOc2ccc(-c3noc(C4CC4)n3)c(F)c2)CC1
Histamine H3 receptor [1]
  Ki: 3 nM
Histamine H3 receptor [2]
  Ki: 240 nM

## C[C@@H](NC(=O)c1ccc(Cl)cc1)C(=O)N1CCN(CCCOc2ccc(-c3noc(CC4CCCC4)n3)c(F)c2)CC1
Histamine H3 receptor [1]
  Ki: 2.8 nM
Histamine H3 receptor [2]
  Ki: 24 nM

## CCOCC(=O)N[C@H](C)C(=O)N1CCN(CCCOc2ccc(-c3noc(-c4ccccc4)n3)c(F)c2)CC1
Histamine H3 receptor [1]
  Ki: 10 nM
Histamine H3 receptor [2]
  Ki: 100 nM

## C[C@@H](NC(=O)c1ccco1)C(=O)N1CCCN(CCCOc2ccc(-c3noc(C4CCCO4)n3)c(F)c2)CC1 (mixture of isomers)
Histamine H3 receptor [1]
  Ki: 7.7 nM
Histamine H3 receptor [2]
  Ki: 210 nM

## C[C@@H](NC(=O)c1ccco1)C(=O)N1CCN(CCCOc2ccc(-c3noc(-c4ccccc4)n3)c(F)c2)CC1 (stereo in doubt; 13q)
Histamine H3 receptor [1]
  Ki: 13 nM
Histamine H3 receptor [2]
  Ki: 83 nM
